Reference: patent US8609852B2, “Thiazolyl mGluR5 antagonists and methods for their use” (Merck Sharp & Dohme Corp., priority 2004, dated 2013)
Where a name gives a salt, the structure may show the parent alone.

Legend:
hmGluR5a receptor = hmGluR5a receptor (Homo sapiens (Human), UniProt P41594); test: Calcium Flux Assay; assay type: cell-based; details: hmGluR5a/L38-20 cells, glutamate-evoked [Ca2+]i
Description: The activity of compounds was examined against the hmGluR5a receptor stably expressed in mouse fibroblast Ltk− cells (the hmGluR5a/L38-20 cell line). See generally Daggett et al., Neuropharmacology 34:871-886 (1995). Receptor activity was detected by changes in intracellular calcium ([Ca^2+]i) measured using the fluorescent calcium-sensitive dye, fura-2. hmGluR5a/L38-20 cells were plated onto 96-well plates, and loaded with 3 µM fura-2 for 1 h. Unincorporated dye was washed from the cells, and the cell plate was transferred to a custom-built 96-channel fluorimeter (SIBIA-SAIC, La Jolla, Calif.) which is integrated into a fully automated plate handling and liquid delivery system. Cells were excited at 350 and 385 nm with a xenon source combined with optical filters. Emitted light was collected from the sample through a dichroic mirror and a 510 nm interference filter and directed into a cooled CCD camera (Princeton Instruments). Image pairs were captured approximately every 1 s, and ratio images were generated after background subtraction. After a basal reading of 20 s, an EC80 concentration of glutamate ([…]) was added to the well, and the response evaluated for another 60 s. The glutamate-evoked increase in [Ca^2+]i in the presence of the screening compound was compared to the response of glutamate alone (the positive control).

[1] = molecular target: metabotropic glutamate receptor subtype 5 (Rattus norvegicus (Rat), UniProt P31424); test: [3H]-mGluR5 Antagonist Binding to Rodent Brain Membranes
Description: In accordance with Anderson J J, Rao S P, Rowe B, Giracello D R, Holtz G, Chapman D F, Tehrani L, Bradbury M J, Cosford N D, Varney M A, [^3H]Methoxymethyl-3-[(2-methyl-1,3-thiazol-4-yl)ethynyl]pyridine binding to metabotropic glutamate receptor subtype 5 in rodent brain: in vitro and in vivo characterization. J Pharmacol Exp Ther. 2002 December; 303 (3):1044-51, membranes were prepared (as described in Ransom R W and Stec N L (1988) Cooperative modulation of [^3H]MK-801 binding to the N-methyl-D-aspartate receptor-ion channel complex by L-glutamate, glycine, and polyamines. J Neurochem 51:830-836) using whole rat brain, or mGlu5^+/+ or mGlu5^−/− whole mouse brain.
Binding assays were performed as described in Schaffhauser H, Richards J G, Cartmell J, Chaboz S, Kemp J A, Klingelschmidt A, Messer J, Stadler H, Woltering T and Mutel V (1998) In vitro binding characteristics of a new selective group II metabotropic glutamate receptor radioligand, [^3H]LY354740, in rat brain. Mol Pharmacol 53:228-233) at room temperature with slight modifications. Briefly, membranes were thawed and washed once with assay buffer (50 mM HEPES, 2 mM MgCl2, pH 7.4), followed by centrifugation at 40,000×g for 20 min. The pellet was resuspended in assay buffer and briefly homogenized with a Polytron.
For protein linearity experiments, increasing concentrations of membrane protein were added to 96-well plates in triplicate and binding was initiated by addition of 20 nM [^3H]methoxymethyl-3-[(2-methyl-1,3-thiazol-4-yl)ethynyl]pyridine. The assay was incubated for 2 h and non-specific binding was determined using 10 μM MPEP. The binding was terminated by rapid filtration through glass-fiber filters (Unifilter-96 GF/B plate, Packard) using a 96-well plate Brandel cell harvester. Following addition of scintillant, the radioactivity was determined by liquid scintillation spectrometry. Protein measurements were performed by BioRad-DC Protein assay using bovine serum albumin as the standard.
Saturation binding experiments were performed in triplicate with increasing concentrations of [^3H]methoxymethyl-3-[(2-methyl-1,3-thiazol-4-yl)ethynyl]pyridine (1 pM to 100 nM). The time course of association was measured by the addition of 10 nM [^3H]methoxymethyl-3-[(2-methyl-1,3-thiazol-4-yl)ethynyl]pyridine to the membranes at different time points (0-240 min), followed by filtration. Dissociation was measured by the addition of 100 μM unlabeled methoxymethyl-3-[(2-methyl-1,3-thiazol-4-yl)ethynyl]pyridine at different time points to membranes previously incubated for 3 h with 10 nM [^3H]methoxymethyl-3-[(2-methyl-1,3-thiazol-4-yl)ethynyl]pyridine. For competition experiments, 100 μg membrane protein and 10 nM [^3H]methoxymethyl-3-[(2-methyl-1,3-thiazol-4-yl)ethynyl]pyridine was added to wells containing increasing concentration of the test compound in duplicate (methoxymethyl-3-[(2-methyl-1,3-thiazol-4-yl)ethynyl]pyridine or MPEP). [^3H]-3-Methoxy-5-(pyridin-2-ylethynyl)pyridine may also be used as the radioligand in the procedure described above. (See, Cosford, N. D. P.; Roppe, J.; Tehrani, L.; Seiders, T. J.; Schweiger, E. J. et al. [3H]-Methoxymethyl-MTEP and [3H]-methoxy-PEPy): Potent and selective radioligands for the Metabotropic Glutamate Subtype 5 (mGlu5) Receptor. Bioorg. Med. Chem. Lett. 2003, 13, 351-354.)

Chain of metabotropic glutamate receptor subtype 5 (P31424 21-1203): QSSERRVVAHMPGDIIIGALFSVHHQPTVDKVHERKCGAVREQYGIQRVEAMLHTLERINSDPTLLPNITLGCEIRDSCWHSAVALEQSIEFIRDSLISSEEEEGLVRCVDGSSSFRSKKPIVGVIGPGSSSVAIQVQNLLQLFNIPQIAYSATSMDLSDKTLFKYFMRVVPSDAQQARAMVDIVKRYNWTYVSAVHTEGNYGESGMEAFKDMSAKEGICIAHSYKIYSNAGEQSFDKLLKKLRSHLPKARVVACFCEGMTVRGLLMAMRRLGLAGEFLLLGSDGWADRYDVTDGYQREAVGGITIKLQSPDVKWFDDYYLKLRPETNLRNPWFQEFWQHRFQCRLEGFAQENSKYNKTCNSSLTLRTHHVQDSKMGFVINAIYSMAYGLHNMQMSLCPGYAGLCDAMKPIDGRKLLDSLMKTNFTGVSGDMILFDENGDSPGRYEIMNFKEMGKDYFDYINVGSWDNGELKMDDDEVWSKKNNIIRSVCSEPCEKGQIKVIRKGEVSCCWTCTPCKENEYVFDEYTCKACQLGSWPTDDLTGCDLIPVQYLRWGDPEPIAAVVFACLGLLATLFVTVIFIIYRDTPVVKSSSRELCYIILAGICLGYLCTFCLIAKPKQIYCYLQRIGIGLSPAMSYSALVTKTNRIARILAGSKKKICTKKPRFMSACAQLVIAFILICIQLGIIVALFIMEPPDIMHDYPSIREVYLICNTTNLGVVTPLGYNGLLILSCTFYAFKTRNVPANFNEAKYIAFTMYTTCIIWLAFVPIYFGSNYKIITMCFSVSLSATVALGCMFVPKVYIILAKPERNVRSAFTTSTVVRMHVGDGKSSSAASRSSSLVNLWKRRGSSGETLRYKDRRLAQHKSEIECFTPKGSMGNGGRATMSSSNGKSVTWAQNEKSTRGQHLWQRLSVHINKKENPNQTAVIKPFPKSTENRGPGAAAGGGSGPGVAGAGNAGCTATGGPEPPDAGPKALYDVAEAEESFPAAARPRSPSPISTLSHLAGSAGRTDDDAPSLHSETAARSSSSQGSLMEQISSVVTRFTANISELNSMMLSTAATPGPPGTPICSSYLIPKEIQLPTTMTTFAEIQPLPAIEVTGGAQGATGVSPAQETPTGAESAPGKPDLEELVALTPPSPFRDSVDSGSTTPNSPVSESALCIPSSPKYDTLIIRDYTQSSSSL
Chain of hmGluR5a receptor (P41594 other isoform, or with tags, fused parts or gaps): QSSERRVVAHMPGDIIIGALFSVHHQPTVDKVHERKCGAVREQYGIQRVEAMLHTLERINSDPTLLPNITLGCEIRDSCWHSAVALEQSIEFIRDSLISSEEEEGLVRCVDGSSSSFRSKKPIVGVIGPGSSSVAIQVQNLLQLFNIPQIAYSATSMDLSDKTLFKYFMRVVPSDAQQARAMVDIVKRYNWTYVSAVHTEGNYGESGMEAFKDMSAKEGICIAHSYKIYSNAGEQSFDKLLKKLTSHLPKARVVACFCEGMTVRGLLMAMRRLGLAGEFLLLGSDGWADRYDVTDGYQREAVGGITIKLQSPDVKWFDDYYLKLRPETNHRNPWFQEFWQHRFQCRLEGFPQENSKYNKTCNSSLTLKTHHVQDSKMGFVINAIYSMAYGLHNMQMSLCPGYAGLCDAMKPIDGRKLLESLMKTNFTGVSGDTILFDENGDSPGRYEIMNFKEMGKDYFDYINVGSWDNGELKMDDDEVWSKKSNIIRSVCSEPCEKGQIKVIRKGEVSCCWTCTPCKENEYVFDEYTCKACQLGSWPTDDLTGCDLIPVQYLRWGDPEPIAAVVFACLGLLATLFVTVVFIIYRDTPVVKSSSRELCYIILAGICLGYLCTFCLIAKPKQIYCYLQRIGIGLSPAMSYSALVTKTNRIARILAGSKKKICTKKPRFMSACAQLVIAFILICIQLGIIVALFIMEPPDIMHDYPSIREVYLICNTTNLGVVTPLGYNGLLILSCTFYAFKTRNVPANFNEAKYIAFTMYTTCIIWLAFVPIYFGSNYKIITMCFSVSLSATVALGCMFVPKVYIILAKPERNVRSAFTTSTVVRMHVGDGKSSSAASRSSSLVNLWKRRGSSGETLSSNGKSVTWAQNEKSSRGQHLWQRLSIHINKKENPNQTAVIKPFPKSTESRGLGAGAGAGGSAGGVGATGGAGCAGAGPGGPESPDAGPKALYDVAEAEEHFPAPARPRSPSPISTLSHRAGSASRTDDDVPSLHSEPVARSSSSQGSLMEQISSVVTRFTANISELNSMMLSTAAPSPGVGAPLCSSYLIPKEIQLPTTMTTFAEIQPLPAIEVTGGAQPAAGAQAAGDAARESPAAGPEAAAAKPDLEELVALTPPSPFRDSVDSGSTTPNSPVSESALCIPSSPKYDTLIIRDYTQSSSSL

SMILES	IC50 (hmGluR5a receptor) [nM]	Ki [1] [nM]
Cc1nc(C#Cc2cnc(N3CCCC(C)C3)nc2)cs1 (stereo not drawn) [Example 103]	1.6	1.6
Cc1nc(C#Cc2cncc(-c3ccccc3CO)c2)cs1 [Example 84]	2	7
Cc1nc(C#Cc2ccc(NC3CCC3)nc2)cs1 [Example 42]	11	17
Cc1nc(C#Cc2cnc(NC(C)(C)C)nc2)cs1 [Example 22, N-(tert-butyl)-5-[(2-methyl-1,3-thiazol-4-yl)ethynyl]pyrimidin-2-amine]	1.2	0.9
Cc1nc(C#Cc2ccc(C3CC4CCC3C4)nc2)cs1 (stereo not drawn) [Example 73]	4	2
Cc1nc(C#Cc2cncc(Nc3cccnc3)c2)cs1 [Example 41]	11	5
Cc1nc(C#Cc2cnc(N3CCCCC3C)nc2)cs1 (stereo not drawn) [Example 96]	5	5
Cc1nc(C#Cc2cnc(N3CCCCC3)nc2)cs1 [Example 24, 5-[(2-methyl-1,3-thiazol-4-yl)ethynyl]-2-piperidin-1-ylpyrimidine]	0.3	2.6
Cc1nc(C#Cc2cnc(NC3CCCC3)nc2)cs1 [Example 102]	2	26
Cc1nc(C#Cc2ccc(N3CCCC3C)nc2)cs1 (stereo not drawn) [Example 20, 2-(2-methylpyrrolidin-1-yl)-5-[(2-methyl-1,3-thiazol-4-yl)ethynyl]pyridine]	1	1.4
Cc1nc(C#Cc2ccc(N3CCCCC3)nc2)cs1 [Example 19, 5-[(2-methyl-1,3-thiazol-4-yl)ethynyl]-2-piperidin-1-ylpyridine]	1.8	2.8
Cc1nc(C#Cc2cnc(N3CCCC(CO)C3)nc2)cs1 (stereo not drawn) [Example 92]	12	7
Cc1nc(C#Cc2ccc(N3CCC(F)CC3)nc2)cs1 [Example 88]	2	4
Cc1nc(C#Cc2cnc(-n3ccc4ccncc43)nc2)cs1 [Example 99]	2.8	33
Cc1nc(C#Cc2cncc(Oc3cccnc3)c2)cs1 [Example 91]	1	1
Cc1nc(C#Cc2cncc(N(C)c3cccnc3)c2)cs1 [Example 82]	3	2
Cc1nc(C#Cc2ccc(N3CCSCC3)nc2)cs1 [Example 40]	12	9
Cc1nc(C#Cc2ccc(C3CCCCC3)nc2)cs1 [Example 30, 2-cyclohexyl-5-[(2-methyl-1,3-thiazol-4-yl)ethynyl]pyridine]	2.2	2.3
Cc1nc(C#Cc2cncc(C3CC3)c2)cs1 [Example 76]	3.5	3
Cc1nc(C#Cc2ccc(N3CCCCCC3)nc2)cs1 [Example 57]	7	7.5
Cc1nc(C#Cc2ccc(N3CCC(C)CC3)nc2)cs1 [Example 81]	3	6

Now from value to compound:

IC50 (hmGluR5a receptor) [nM]	Ki [1] [nM]	SMILES
1.1		Cc1nc(C#Cc2ccc(-c3ccc(F)cc3C)nc2)cs1 [Example 9, 2-(4-fluoro-2-methylphenyl)-5-[(2-methyl-1,3-thiazol-4-yl)ethynyl]pyridinium trifluoroacetate]
0.6	1.1	Cc1nc(C#Cc2ccc(-c3cc(F)ccc3C)nc2)cs1 [Example 12, 2-(5-fluoro-2-methylphenyl)-5-[(2-methyl-1,3-thiazol-4-yl)ethynyl]pyridinium trifluoroacetate]
1	2.6	Cc1nc(C#Cc2cnc(-c3ccccc3Cl)nc2)cs1 [Example 15, 2-(2-chlorophenyl)-5-[(2-methyl-1,3-thiazol-4-yl)ethynyl]pyrimidine]
9	5.5	Cc1nc(C#Cc2ccc(-c3ccc(F)c(C)c3)nc2)cs1 [Example 49]
6	4	CCC(C)(C)Nc1ccc(C#Cc2csc(C)n2)cn1 [Example 59]
11	2	Cc1nc(C#Cc2ccc(-c3ccccc3CO)nc2)cs1 [Example 44]
4.4	1.2	COc1ccc(F)cc1-c1ccc(C#Cc2csc(C)n2)cn1 [Example 6, 2-(5-fluoro-2-methoxyphenyl)-5-[(2-methyl-1,3-thiazol-4-yl)ethynyl]pyridine]
5	7	CC[C@@H](C)Nc1ccc(C#Cc2csc(C)n2)cn1 [Example 68]
19	7	Cc1nc(C#Cc2ccc(-c3ccc(F)cc3F)nc2)cs1 [Example 33]
11	19	COc1ccc(C)cc1-c1ccc(C#Cc2csc(C)n2)cn1 [Example 47]
17	5	Cc1nc(C#Cc2ccc(-c3cccc4ncccc34)nc2)cs1 [Example 35]
5	9	CCC(CC)Nc1ccc(C#Cc2csc(C)n2)cn1 [Example 66]
6.3	1	Cc1nc(C#Cc2ccc(-c3ccccc3C)nc2)cs1 [Example 5, 2-(2-methylphenyl)-5-[(2-methyl-1,3-thiazol-4-yl)ethynyl]pyridine]
5	5	Cc1nc(C#Cc2ccc(-c3cccc(C#N)c3)nc2)cs1 [Example 70]
7	13	Cc1nc(C#Cc2ccc(-c3cccc(CO)c3)nc2)cs1 [Example 56]
8	1.5	Cc1ccc(F)c(-c2ccc(C#Cc3csc(C)n3)cn2)c1 [Example 54]
1.7	0.9	Cc1nc(C#Cc2ccc(SC(C)(C)C)nc2)cs1 [Example 28, 2-(tert-butylthio)-5-[(2-methyl-1,3-thiazol-4-yl)ethynyl]pyridine]
0.9	2.7	Cc1nc(C#Cc2ccc(-c3cccc(F)c3)nc2)cs1 [Example 3, 2-(3-fluorophenyl)-5-[(2-methyl-1,3-thiazol-4-yl)ethynyl]pyridine]
2		Cc1nc(C#Cc2ccc(-c3cccc(-n4cccn4)c3)nc2)cs1 [Example 87]
2	7	CCCN(C)c1ccc(C#Cc2csc(C)n2)cn1 [Example 86]
0.7		COc1c(F)cc(F)cc1-c1ccc(C#Cc2csc(C)n2)cn1 [Example 10, 2-(3,5-difluoro-2-methoxyphenyl)-5-[(2-methyl-1,3-thiazol-4-yl)ethynyl]pyridinium trifluoroacetate]
2.2		Cc1nc(C#Cc2ccc(-c3ccccc3C#N)nc2)cs1 [Example 4, 2-{5-[(2-methyl-1,3-thiazol-4-yl)ethynyl]pyridin-2-yl}benzonitrile]
1.3		COc1cc(F)ccc1-c1ccc(C#Cc2csc(C)n2)cn1 [Example 11, 2-(4-fluoro-2-methoxyphenyl)-5-[(2-methyl-1,3-thiazol-4-yl)ethynyl]pyridinium trifluoroacetate]
	6	Cc1nc(C#Cc2cnc(-c3ccccc3F)nc2)cs1 [Example 106]
